The source of these data is publication PMC9786103, “Potent and Selective Inhibition of CYP1A2 Enzyme by Obtusifolin and Its Chemopreventive Effects” (Pharmaceutics, 2022).

Common to all, as to assay type: biochemical
Data set [1] addresses T1, rCYP1A1 (Homo sapiens, UniProt P04798).
T1 construct: purchased SPMED (Busan, Republic of Korea)
T1 sequence (P04798 1-512): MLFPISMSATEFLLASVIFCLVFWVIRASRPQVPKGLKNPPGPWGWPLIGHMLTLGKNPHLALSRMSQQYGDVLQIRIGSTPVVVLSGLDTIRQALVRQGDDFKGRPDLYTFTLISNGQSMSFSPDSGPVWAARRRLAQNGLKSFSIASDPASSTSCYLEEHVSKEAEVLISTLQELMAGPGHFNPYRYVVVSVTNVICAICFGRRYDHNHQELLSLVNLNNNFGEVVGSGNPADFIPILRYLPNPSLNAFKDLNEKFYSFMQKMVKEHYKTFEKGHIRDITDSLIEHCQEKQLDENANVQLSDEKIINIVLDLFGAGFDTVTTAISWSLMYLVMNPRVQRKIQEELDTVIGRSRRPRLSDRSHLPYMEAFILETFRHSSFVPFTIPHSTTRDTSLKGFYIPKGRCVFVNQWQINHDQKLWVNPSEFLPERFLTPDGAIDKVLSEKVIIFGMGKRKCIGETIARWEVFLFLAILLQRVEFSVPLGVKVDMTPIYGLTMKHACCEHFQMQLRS
In words: Phenacetin O-deethylation (POD) in recombinant CYP1A1.

The next data set concerns the target T2, CYP2E1 (Homo sapiens, UniProt P05181).
T2 construct: Mixtures of pooled HLM, P450 substrates, and obtusifolin; tissue XenoTech XTreme 200; host or cells: pooled human liver microsomes
Description: biochemical.

A further data set concerns the target CYP3A (Homo sapiens, UniProt P08684). Description: Midazolam 1'-hydroxylation in human liver microsomes. The conditions noted are these: pooled human liver microsomes, probe midazolam, HLMs. (In general: Microsomes from liver hold many membrane-bound enzymes, among them those of drug oxidation.)
Data set [2] deals with T1, rCYP1A1. Description: Recombinant CYP1A1 inhibition with 9-cis-retinal as substrate. The conditions noted are these: substrate 9-cis-retinal. An excerpt:
(§1) Table 5 Inhibitory effects (IC50) of obtusifolin against recombinant CYP1A1 and CYP1A2. | column: IC50 (μM)

Another data set concerns the target T3, rCYP1A2 (Homo sapiens, UniProt P05177).
T3 construct: purchased SPMED (Busan, Republic of Korea)
T3 sequence (P05177 1-516): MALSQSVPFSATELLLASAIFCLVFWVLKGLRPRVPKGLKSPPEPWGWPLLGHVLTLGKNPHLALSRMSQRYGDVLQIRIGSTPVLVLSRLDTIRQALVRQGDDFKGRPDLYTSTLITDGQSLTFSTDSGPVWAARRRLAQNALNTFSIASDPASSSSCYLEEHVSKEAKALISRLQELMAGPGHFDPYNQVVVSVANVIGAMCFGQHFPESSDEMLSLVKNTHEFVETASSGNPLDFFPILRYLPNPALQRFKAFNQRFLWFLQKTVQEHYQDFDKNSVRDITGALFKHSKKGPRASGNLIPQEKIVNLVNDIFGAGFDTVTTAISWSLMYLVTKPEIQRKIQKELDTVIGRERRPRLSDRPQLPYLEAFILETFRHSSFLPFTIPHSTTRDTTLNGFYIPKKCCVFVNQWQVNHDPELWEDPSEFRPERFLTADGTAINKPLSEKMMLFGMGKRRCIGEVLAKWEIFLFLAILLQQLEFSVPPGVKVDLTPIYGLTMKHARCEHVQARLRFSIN
In words: Recombinant CYP1A2 inhibition with 9-cis-retinal as substrate. The conditions noted are these: substrate 9-cis-retinal.
Excerpt: as §1

The target of data set [3] is T1, rCYP1A1. Description: Ethoxyresorufin O-deethylation (EROD) in recombinant CYP1A1. The following applies: rCYP1A1 10 pmol/mL, 7-ethoxyresorufin 2 µM, 20 min; read-out: IC50, CYP1A1-mediated EROD. Here is the method: The inhibitory effects of obtusifolin on the CYP1A-mediated ethoxyresorufin O-deethylation (EROD) activity of rCYP1A1 and rCYP1A2 enzymes (10 pmol/mL) were investigated. […] The other conditions, except for the incubation time (20 min), were similar to those used in the P450 inhibition study, as described earlier.

A further data set addresses T4, CYP2A6 (Homo sapiens, UniProt P11509).
T4 construct: Mixtures of pooled HLM, P450 substrates, and obtusifolin; tissue XenoTech XTreme 200; host or cells: pooled human liver microsomes
T4 sequence (P11509 1-494): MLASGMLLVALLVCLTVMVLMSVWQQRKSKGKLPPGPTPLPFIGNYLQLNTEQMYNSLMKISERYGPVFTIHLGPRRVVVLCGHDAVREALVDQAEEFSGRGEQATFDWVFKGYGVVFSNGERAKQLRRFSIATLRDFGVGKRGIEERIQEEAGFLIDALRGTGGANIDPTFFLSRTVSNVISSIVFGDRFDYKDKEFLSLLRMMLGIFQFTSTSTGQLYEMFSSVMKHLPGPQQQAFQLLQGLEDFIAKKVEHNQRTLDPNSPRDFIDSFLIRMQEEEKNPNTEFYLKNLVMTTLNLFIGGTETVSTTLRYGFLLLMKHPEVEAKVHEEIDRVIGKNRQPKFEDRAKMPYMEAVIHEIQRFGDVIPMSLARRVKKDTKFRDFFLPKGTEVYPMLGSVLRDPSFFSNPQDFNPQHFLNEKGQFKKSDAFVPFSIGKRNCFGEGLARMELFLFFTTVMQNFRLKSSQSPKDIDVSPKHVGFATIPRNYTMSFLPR
Description: Coumarin 7-hydroxylation in human liver microsomes. The following applies: HLMs.

For another data set, the target named is T5, CYP2C8 (Homo sapiens, UniProt P10632).
T5 construct: Mixtures of pooled HLM, P450 substrates, and obtusifolin; tissue XenoTech XTreme 200; host or cells: pooled human liver microsomes
T5 sequence (P10632 1-490): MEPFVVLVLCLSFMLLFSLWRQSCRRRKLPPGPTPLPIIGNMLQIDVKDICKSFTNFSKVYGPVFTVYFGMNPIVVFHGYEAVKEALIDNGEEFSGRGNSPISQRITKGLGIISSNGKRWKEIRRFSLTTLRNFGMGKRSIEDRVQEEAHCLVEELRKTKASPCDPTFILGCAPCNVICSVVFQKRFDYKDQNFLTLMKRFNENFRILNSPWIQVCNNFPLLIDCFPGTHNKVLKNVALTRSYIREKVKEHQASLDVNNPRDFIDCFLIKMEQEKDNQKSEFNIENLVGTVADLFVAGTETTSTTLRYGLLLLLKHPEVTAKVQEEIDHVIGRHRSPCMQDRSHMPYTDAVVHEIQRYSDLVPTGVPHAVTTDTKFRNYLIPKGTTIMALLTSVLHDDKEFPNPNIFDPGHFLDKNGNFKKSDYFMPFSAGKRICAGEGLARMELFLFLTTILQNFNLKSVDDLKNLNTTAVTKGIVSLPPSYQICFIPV
Description: Amodiaquine N-deethylation in human liver microsomes. The conditions noted are these: HLMs.

Another data set deals with T6, CYP2D6 (Homo sapiens, UniProt P10635).
T6 construct: Mixtures of pooled HLM, P450 substrates, and obtusifolin; tissue XenoTech XTreme 200; host or cells: pooled human liver microsomes
T6 sequence (P10635 whole entry): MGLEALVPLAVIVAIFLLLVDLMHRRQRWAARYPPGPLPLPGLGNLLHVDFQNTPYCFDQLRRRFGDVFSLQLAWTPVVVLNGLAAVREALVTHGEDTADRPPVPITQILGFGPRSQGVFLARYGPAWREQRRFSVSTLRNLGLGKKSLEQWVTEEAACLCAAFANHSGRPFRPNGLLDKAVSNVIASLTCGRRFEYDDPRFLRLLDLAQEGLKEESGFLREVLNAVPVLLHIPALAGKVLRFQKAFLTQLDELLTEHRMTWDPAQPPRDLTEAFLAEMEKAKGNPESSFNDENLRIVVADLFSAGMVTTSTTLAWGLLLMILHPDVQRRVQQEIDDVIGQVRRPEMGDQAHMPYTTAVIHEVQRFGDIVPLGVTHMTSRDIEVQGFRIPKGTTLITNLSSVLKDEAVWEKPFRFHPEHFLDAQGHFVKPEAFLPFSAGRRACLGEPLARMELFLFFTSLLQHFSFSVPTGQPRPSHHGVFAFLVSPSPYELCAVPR
In words: Dextromethorphan O-demethylation in human liver microsomes. The following applies: HLMs.

The structures appear in SMILES notation.

T2 sequence (P05181 whole entry): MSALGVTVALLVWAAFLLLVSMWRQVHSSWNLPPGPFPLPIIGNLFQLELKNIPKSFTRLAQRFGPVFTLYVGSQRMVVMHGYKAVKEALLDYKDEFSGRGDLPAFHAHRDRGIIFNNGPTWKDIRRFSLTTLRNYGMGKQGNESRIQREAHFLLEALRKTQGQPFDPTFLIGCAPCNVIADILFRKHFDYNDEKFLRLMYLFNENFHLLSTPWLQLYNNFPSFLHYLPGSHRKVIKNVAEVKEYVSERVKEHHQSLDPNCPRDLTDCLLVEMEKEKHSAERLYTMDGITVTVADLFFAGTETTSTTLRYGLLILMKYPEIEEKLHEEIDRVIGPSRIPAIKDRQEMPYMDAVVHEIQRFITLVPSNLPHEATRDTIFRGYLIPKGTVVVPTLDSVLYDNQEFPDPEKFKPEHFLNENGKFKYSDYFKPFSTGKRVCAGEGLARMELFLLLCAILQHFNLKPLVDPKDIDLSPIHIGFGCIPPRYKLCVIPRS
CYP3A, sequence (P08684 2-503): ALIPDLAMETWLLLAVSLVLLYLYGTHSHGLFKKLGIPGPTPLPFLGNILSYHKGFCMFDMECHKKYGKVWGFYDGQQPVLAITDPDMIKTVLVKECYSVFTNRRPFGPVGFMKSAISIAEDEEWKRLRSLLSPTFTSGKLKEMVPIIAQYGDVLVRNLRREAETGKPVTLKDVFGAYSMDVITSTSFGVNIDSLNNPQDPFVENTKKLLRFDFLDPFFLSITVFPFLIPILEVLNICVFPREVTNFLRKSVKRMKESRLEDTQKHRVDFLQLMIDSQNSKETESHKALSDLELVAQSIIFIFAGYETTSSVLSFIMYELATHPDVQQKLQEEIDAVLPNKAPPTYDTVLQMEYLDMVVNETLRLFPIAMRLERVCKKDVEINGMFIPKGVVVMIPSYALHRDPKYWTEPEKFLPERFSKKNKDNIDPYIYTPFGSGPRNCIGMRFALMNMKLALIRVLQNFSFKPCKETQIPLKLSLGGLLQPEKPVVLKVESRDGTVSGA
Description for CYP2A6: (§2) The following P450 isoform-specific substrates were used: coumarin (CYP2A6); bupropion (CYP2B6); amodiaquine (CYP2C8); tolbutamide (CYP2C9); omeprazole (CYP2C19); dextromethorphan (CYP2D6); chlorzoxazone (CYP2E1); and midazolam (CYP3A). […] NGS was introduced to start the reaction, which was followed by an additional incubation (15 min). Following reaction termination, aliquots of the supernatants were analyzed with LC-MS/MS.
(§3) Reverse phase column (Kinetex XB-C18, 100 × 2.10 mm; Phenomenex, Torrance, CA, USA) and triple-quadrupole mass spectrometer (LCMS 8060, Shimadzu, Kyoto, Japan) with an ultra high-performance LC system (Nexera X2, Shimadzu) analyze all the metabolites. […] For each metabolite, quantitation was carried out in selected reaction monitoring (SRM) mode using the following precursor-to-product ion transition: m/z 152 > 110 for acetaminophen (CYP1A2), m/z 214 > 186 for resorufin (CYP1A1 and CYP1A2), m/z 163 > 107 for 7-hydroxycoumarin (CYP2A6), m/z 256 > 238 for 6-hydroxybupropion (CYP2B6), m/z 328 > 283 for N-desethylamodiaquine (CYP2C8), m/z 287 > 89 for 5-hydroxytolbutamide (CYP2C9), m/z 362 > 214 for 4-hydroxyomeprazole (CYP2C9), m/z 258 > 157 for dextrorphan (CYP2D6), m/z 184 > 120 for 6-hydroxychlorzoxazone (CYP2E1), m/z 342 > 203 for 1′-hydroxymidazolam (CYP3A), and m/z 295 > 100 for trimipramine (IS) [23, 24].
Description for CYP2C8: as §2, §3
Description for CYP2D6: as §2, §3
Description for CYP2E1: as §2, §3
Description for CYP3A: as §2, §3

For the compound `COc1c(O)c(C)cc2c1C(=O)c1c(O)cccc1C2=O` [Obtusifolin, obtusifolin], the “Selectivity for rCYP1A1 over rCYP1A2” value at rCYP1A1 [1] (CYP1A-mediated POD activity) is listed as “over six-fold”. The IC50 – broadly, the concentration needed to halve the response being measured – on rCYP1A1 [1] (substrate phenacetin (POD)) is 0.06 ± 0.02 µM; at CYP2E1, over 50 µM; at rCYP1A1 [2] it was over 10 µM; on rCYP1A2, 0.15 ± 0.03 µM; on rCYP1A1 [3], 0.39 ± 0.06 µM; at CYP2A6, over 50 µM. The IC50 is 31.4 µM against CYP2C8 and over 50 µM at CYP2D6. The inhibition – broadly, the share of the control response that was lost under treatment – at 15 min, 0.5 µM against CYP2E1 (human, microsomes) came to 30.7%. In addition, the IC50 at 15 min on CYP3A is over 50 µM.
